# Measured values: patent US7319094B2, “Increased and sustained in vivo gene expression using a nucleic acid, histone and amphipathic compound composition” (Rhode Island Hospital, priority 2001, dated 2008)
# What was measured:
# Format in all cases: cell-based, human
# p25 = p25 expression, Western blot / MICE assay; details: PNET2 cells induced to express AD7c-NTP
# Description: Standard Western blot assays wew used to measure cellular levels of p53, Bcl-2, p21/Waf1, phospho-tau, tau, c-fos, NTP, and activated (phosphorylated) forms of Erk mitogen activated protein (MAP) kinase, amino-terminal c-jun-activated kinase (pJNK), and p38/HOG1. Immunoprecipitation followed by Western blot analysis was used to measure p85 subunit associated with IRS1. For Western blot analysis of p53 Bcl-2, phospho-tau, tau, c-fos, and NTP, the cells were lysed in ice cold radioimmunoprecipitation assay (RIPA) buffer supplemented with protease and phosphatase inhibitors. […] Protein concentrations were measured using the BCA assay (Pierce, Rockford, Ill.). Samples containing 60 μg of protein were fractionated by sodium dodecyl sulfate polyacrylamide gel electrophoresis (SDS-PAGE), then transferred to PVDF membranes, and analyzed by Western immunoblotting. Immunoreactivity was detected with horseradish peroxidase conjugated secondary IgG and PicoWest enhanced chemiluminescence reagents (Pierce Chemical Company, Rockford, Ill.). CAT activity was measured using known methods.
# The MICE assay is known in the art (e.g., as described by de la Monte et al., 1999, Biotechniques 26:107301076). […] Immunoreactivity was detected using horseradish peroxidase conjugated secondary antibody (Pierce, Rockford, Ill.) and the TMB soluble peroxidase substrate (Pierce, Rockford, Ill.). […]
# [1] = system: PNET2 cells induced to express AD7c-NTP; test: Crystal violet viability assay; details: 3 mM IPTG-induced AD7c-NTP; relative to un-induced FCS-stimulated and IPTG-induced NGF or PDGF stimulated cultures
# Method: To examine the effects of different growth factors on AD7c-NTP expression (and over-expression), the cells were serum-starved for 16 hours, after which IPTG (1-5 mM) was added to the medium. Four hours later, the cells were stimulated with insulin (50 nM), IGF-1 (5 ng/ml), NGF ([…]), or platelet-derived growth factor (PDGF; 5 ng/ml) for 24-72 hours. The cells were analyzed for morphological changes, viability, AD7c-NTP immunoreactivity, and expression of pro-apoptosis genes, survival genes, and phospho-tau.
# Viability was measured by a standard crystal violet assay. Crystal violet dye labels only viable cells. The assays were performed with cells seeded into 96-well plates at a density of 2×10^4 cells/well. The absorbances were measured using a Spectracount plate reader (Packard, Meriden, Conn.). The crystal violet absorbances increased linearly with cell density between 10^4 and 5×10^5 cells/well.
# Cells were serum-starved for 24 hours. However, since several hours of IPTG stimulation were required to induce AD7c-NTP gene expression or CAT activity, IPTG (3 mM) was added to the cultures after 16 hours of serum-starvation, i.e. 8 hours prior to growth factor stimulation. […]
# Increased cell loss associated with insulin-stimulation and AD7c-NTP over-expression Cell viability was quantified using the microculture Crystal violet assay with cells seeded into 96-well plates. […]
# [2] = system: nitric oxide synthase-3 (NOS-3); test: NOS-3 expression, Western blot; details: PNET2 cells induced to express AD7c-NTP; relative to PDGF-stimulated cultures
# Description: Standard Western blot assays wew used to measure cellular levels of p53, Bcl-2, p21/Waf1, phospho-tau, tau, c-fos, NTP, and activated (phosphorylated) forms of Erk mitogen activated protein (MAP) kinase, amino-terminal c-jun-activated kinase (pJNK), and p38/HOG1. Immunoprecipitation followed by Western blot analysis was used to measure p85 subunit associated with IRS1. For Western blot analysis of p53 Bcl-2, phospho-tau, tau, c-fos, and NTP, the cells were lysed in ice cold radioimmunoprecipitation assay (RIPA) buffer supplemented with protease and phosphatase inhibitors. For the immunoprecipitation studies, Western blot analysis of phospho-Erk, pJNK, and p38, and the PI3 kinase assays, the cells were harvested in Triton lysis buffer supplemented with protease and phosphatase inhibitors. Protein concentrations were measured using the BCA assay (Pierce, Rockford, Ill.). Samples containing 60 μg of protein were fractionated by sodium dodecyl sulfate polyacrylamide gel electrophoresis (SDS-PAGE), then transferred to PVDF membranes, and analyzed by Western immunoblotting. Immunoreactivity was detected with horseradish peroxidase conjugated secondary IgG and PicoWest enhanced chemiluminescence reagents (Pierce Chemical Company, Rockford, Ill.). CAT activity was measured using known methods. […]
substance,measurement,setting,value
insulin: Human insulin purchased from Novagen,p25 level,p25,significantly increased levels
same,cell density (crystal violet),[1],significantly reduced cell densities
same,NOS-3 level,[2],increased levels
